# Assay results from patent publication US7993931B1, “Oxygen-18 labeled organic acids and use in diagnosing metabolic disorders” (Quest Diagnostics Investments Incorporated, priority 2003, dated 2011).
# Test: Stability of oxygen-18 labeled organic acids in the sample preparation procedure (L/L extraction, MTBSTFA derivatization, GC/MS)
# Details: for stability of the labeled acid (in words): prior to L/L extraction, during an 80 minute and during a 120 minute L/L extraction
# [1] = Before L/L extraction, in diluted normal human urine, pH 1, ethyl-acetate extraction, GC/MS [M-57]+
Compound,Single labeled (Before L/L extraction),Unlabeled (Before L/L extraction),Double labeled [1],Double labeled (L/L 80 min. extraction),Single labeled (L/L 80 min. extraction),Unlabeled (L/L 80 min. extraction),Double labeled (L/L 120 min. extraction),Single labeled (L/L 120 min. extraction),Unlabeled (L/L 120 min. extraction),stability of the labeled acid (in words),further results
CC(O)C(C)C(=O)O (stereo not drawn) [3-hydroxy-2-methyl butyric acid],14.9%,0.1%,85%,85%,14.9%,0.1%,85%,14.7%,0.3%,exhibited stability,
"CCC(O)C(=O)O (stereo not drawn) [oxygen-18-containing 2-OH Butyric Acid, 2-hydroxy-butyric acid]",15%,1%,84%,83%,17.4%,0.11%,80%,19.7%,0.3%,exhibited stability,
"CCCC(=O)NCC(=O)O [Oxygen-18-Containing Butyryl Glycine, Butyryl glycine]",14.5%,0.5%,85%,85%,14.8%,0.2%,83%,16.2%,0.8%,exhibited stability,
"O=C(O)CCCC(=O)O [Oxygen-18-Containing Glutaric Acid, Glutaric acid]",,0.1%,,,,0.2%,,,0.2%,exhibited stability,Oxygen 18 × 1 (Before L/L extraction): 0.4%; Oxygen 18 × 2 (Before L/L extraction): 3.5%; Oxygen 18 × 3 (Before L/L extraction): 27%; Oxygen 18 × 4 (Before L/L extraction): 69%; Oxygen 18 × 1 (L/L 80 min. extraction): 0.8%; Oxygen 18 × 2 (L/L 80 min. extraction): 3%; Oxygen 18 × 3 (L/L 80 min. extraction): 28%; Oxygen 18 × 4 (L/L 80 min. extraction): 68%; Oxygen 18 × 1 (L/L 120 min. extraction): 0.8%; Oxygen 18 × 2 (L/L 120 min. extraction): 4%; Oxygen 18 × 3 (L/L 120 min. extraction): 30%; Oxygen 18 × 4 (L/L 120 min. extraction): 65%
"O=C(O)C(O)CO (stereo not drawn) [Oxygen-18-Containing Glyceric Acid, Glyceric acid]",13%,0%,87%,84%,15.5%,0.5%,81%,17.6%,2.4%,exhibited stability,
"CC=CC(=O)NCC(=O)O [Oxygen-18-Containing Crotonyl Glycine, Crotonyl glycine]",15.5%,0.1%,84%,85%,14.8%,0.2%,81%,17.4%,1.6%,exhibited stability,
CC(C)CC(O)C(=O)O (stereo not drawn) [2-hydroxy isocaproic acid],15.6%,0.4%,84%,83%,16.5%,0.5%,79%,20.6%,0.4%,exhibited stability,
O=C(O)Cc1ccc(O)cc1 [4-hydroxy phenyl acetic acid],15.5%,0.8%,83.7%,81%,15.8%,3.2%,78%,19.7%,2.3%,exhibited stability,
"CC(=O)CC(=O)CCC(=O)O [Oxygen-18-Containing Succinyacetone, Succinyacetone]",,0%,,,,0%,,,0.2%,exhibited stability,Oxygen 18 × 1 (Before L/L extraction): 0.2%; Oxygen 18 × 2 (Before L/L extraction): 2.8%; Oxygen 18 × 3 (Before L/L extraction): 25%; Oxygen 18 × 4 (Before L/L extraction): 72%; Oxygen 18 × 1 (L/L 80 min. extraction): 0.2%; Oxygen 18 × 2 (L/L 80 min. extraction): 2.8%; Oxygen 18 × 3 (L/L 80 min. extraction): 27%; Oxygen 18 × 4 (L/L 80 min. extraction): 70%; Oxygen 18 × 1 (L/L 120 min. extraction): 0.8%; Oxygen 18 × 2 (L/L 120 min. extraction): 3%; Oxygen 18 × 3 (L/L 120 min. extraction): 29%; Oxygen 18 × 4 (L/L 120 min. extraction): 67%
